A short description of series [1]: In vitro plasma stability and predicted half-life (HPLC main peak area, Example 3). In kind it is in vitro ADME. The conditions noted are these: human plasma (EDTA anticoagulant), 37°C, sampled up to 24 h, predicted half-life calculated with Winolin. How it is done: The modified peptides in this study were designed with non-natural amino acid substitutions at certain non-essential positions to enhance peptide stability and improve druggability. Peptides were dissolved in deionized water to 2 mg/mL, then diluted with acetonitrile to 1 mg/mL and filtered through an organic membrane. 200 µL of the filtrate was transferred to an LC vial as the peptide control. 300 µL of human plasma (comprising EDTA as anticoagulant, Nanjing Senbeijia Biotechnology Co., Ltd., Lot No. SBJ-P-HU011-100 mL) was mixed with 300 µL acetonitrile, centrifuged at 4°C and 12,000 rpm for 5 minutes. The supernatant was filtered through an organic membrane, and 200 µL of the filtrate was transferred to an LC vial as the plasma blank control. For peptide samples, 10 mg of peptide was weighed mixed with 5 mL of human plasma and vortexed thoroughly. 300 µL of peptide-containing plasma was mixed with 300 µL acetonitrile, centrifuged at 4°C and 12,000 rpm for 5 minutes, and the supernatant was filtered through an organic membrane. 200 µL of the filtrate was transferred to an LC vial as the 0 min sample. Peptide-containing plasma was incubated in a 37°C water bath, and samples at other time points were collected using the same procedure as the 0 min sample. For peptides AJ003 and AJ003-1, the sampling time points were 0 min, 5 min, 10 min, 20 min, 30 min, 1 h, 2 h, 4 h, 6 h, 10 h, 12 h, and 24 h. For modified peptides AJ003-34, AJ003-35, AJ003-36, AJ003-37, AJ003-38, AJ003-39, AJ003-40, AJ003-41, and AJ003-42, the time points were 0 min, 10 min, 30 min, 1 h, 4 h, 6 h, 10 h, 12 h, and 24 h. All peptide sample series were analyzed by HPLC, recording the changes in main peak areas over plasma incubation time. Predicted in vitro half-lives were calculated using the pharmacokinetic software Winolin. Due to the presence of tautomers, AJ003 peak areas were difficult to integrate accurately over time. AJ003-1 is an analog of AJ003 in which the threonine at position 5 is substituted with D-threonine; its sequence differs from AJ003 by only one amino acid configuration. […] The in vitro plasma half-lives of modified peptides AJ003-34, AJ003-35, AJ003-36, AJ003-37, AJ003-38, AJ003-39, AJ003-40, AJ003-41, and AJ003-42 were 61.9 h, 45.3 h, 65.3 h, 71.0 h, 26.7 h, 43.0 h, 84.0 h, 30.0 h, and 61.4 h, respectively.

The next series deals with α7 nAChR (Homo sapiens, UniProt P36544). As to the kind of experiment: BLI (biolayer interferometry) affinity of peptides to α7 nAChR. The conditions noted are these: NTA sensor, α7 nAChR 20 µg/mL, peptide 1.372-1000 nM in PBS. Set-up: inferred from the 'similar' procedure on NTA sensors. It counts as binding. From the text: BLI is a label-free technology that converts optical interference signals occurring on the surface of BLI biosensors into real-time response signals. By monitoring the molecular binding process in real time, the system determines association rate constants (ka or kon), dissociation rate constants (kd or koff), and initial binding rates, and calculates affinity (KD) by fitting analysis. Here are the specific procedures: NTA sensors (Sartorius) were placed in a pre-wetting tray, which was then positioned in a black 96-well plate with 200 µL PBS per well. The NTA sensors were pre-wetted for at least 15 minutes. The target protein α9 nAChR was diluted in PBS to 5 µg/mL, with 200 µL added per well. Test peptides were dissolved in PBS and serially diluted threefold, with concentrations from high to low as 1000 nM, 333.3 nM, 111.1 nM, 37.04 nM, 12.35 nM, 4.115 nM, and 1.372 nM, with an additional well with PBS only as a zeroconcentration control. After equilibrating the instrument baseline, the NTA sensor was used to immobilize the target protein α9 nAChR. Once immobilization was complete, the baseline was re-equilibrated, followed by a 5-minute association and a 5-minute dissociation phase. Affinity measurements of the test peptides were conducted sequentially using the above procedure. The procedure for measuring peptide affinity to α7 nAChR was similar, except that the α7 nAChR concentration was 20 µg/mL. Tables 2 and 3 show the BLI-determined affinities of alanine-scan peptide analogs with target proteins, which identified sites on the parent peptide suitable for modification. Subsequently, single-site non-natural amino acid substituted peptides were evaluated by BLI for target protein affinity. Finally, multi-site combinatorial modified peptides were measured for affinity by BLI, leading to the selection of high-affinity peptides for further screen and drug development potential. Table 2 Test Results for Affinity of Modified Peptides to α9 nAChR
(In general: Biolayer interferometry detects binding as a change in optical thickness at a sensor tip.)

Positions of bridges follow the written chain, without caps; N, C: chain ends. Non-standard residues stand in square brackets, D forms with d. Residues, ends and D or L forms follow the SMILES beside them. Bip = N[C@@H](Cc1ccc(-c2ccccc2)cc1)C(=O)O; Hyp = O=C(O)[C@@H]1C[C@@H](O)CN1; Nle = CCCC[C@H](N)C(=O)O; Orn = NCCC[C@H](N)C(=O)O; Abu = CC[C@H](N)C(=O)O; Sar = CNCC(=O)O

On to `CC(C)C[C@H](NC(=O)[C@@H](NC(=O)[C@H]1CSSC[C@H](NC(=O)[C@H](CO)NC(=O)CN)C(=O)N[C@@H](CO)C(=O)N[C@H]([C@H](C)O)C(=O)N2CCC[C@H]2C(=O)N2CCC[C@H]2C(=O)N[C@@H](CO)C(=O)N1)C(C)C)C(=O)N[C@@H](Cc1ccc(O)cc1)C(=O)N[C@@H](CO)C(=O)O` [AJ003-1, GSCS-(D-Thr)-PPS-(D-Cys)-VLYS (3,9 disulfide bond)] (H-GSCS[dT]PPS[dC]VLYS-OH; disulfide 3-9), for which, in series [1], the half-life at 2 mg/mL was ~10.8 h. `CC(C)C[C@H](NC(=O)[C@@H](NC(=O)[C@H]1CSSC[C@H](NC(=O)[C@H](CO)NC(=O)CN)C(=O)N[C@@H](CO)C(=O)N[C@H]([C@H](C)O)C(=O)N2CCC[C@H]2C(=O)N2CCC[C@H]2C(=O)N[C@@H](CO)C(=O)N1)C(C)C)C(=O)N[C@@H](Cc1ccc(O)cc1)C(=O)N[C@@H](CO)C(N)=O` [AJ003-4, GSCS-(D-Thr)-PPS-(D-Cys)-VLYS-NH2 (3,9 disulfide bond)] (H-GSCS[dT]PPS[dC]VLYS-NH2; disulfide 3-9) yielded a Kd at α7 nAChR of 339 nM. The same measure, in the same setting: the value for `CC(C)C[C@H](NC(=O)[C@@H](NC(=O)[C@H]1CSSC[C@@H](NC(=O)[C@H](CO)NC(=O)CN)C(=O)N[C@@H](CO)C(=O)N[C@H]([C@H](C)O)C(=O)N2CCC[C@H]2C(=O)N2CCC[C@H]2C(=O)N[C@@H](CO)C(=O)N1)C(C)C)C(=O)N[C@@H](Cc1ccc(O)cc1)C(=O)N[C@@H](CO)C(=O)O` [AJ003-5, GS-(D-Cys)-S-(D-Thr)-PPS-(D-Cys)-VLYS (3,9 disulfide bond)] (H-GS[dC]S[dT]PPS[dC]VLYS-OH; disulfide 3-9) was 400 nM; that for `CC(C)C[C@@H](NC(=O)[C@H](NC(=O)[C@H]1CSSC[C@@H](NC(=O)[C@@H](CO)NC(=O)CN)C(=O)N[C@H](CO)C(=O)N[C@H]([C@H](C)O)C(=O)N2CCC[C@@H]2C(=O)N2CCC[C@@H]2C(=O)N[C@H](CO)C(=O)N1)C(C)C)C(=O)N[C@H](Cc1ccc(O)cc1)C(=O)N[C@H](CO)C(=O)O` [AJ003-6] (H-G[dS][dC][dS][dT][dP][dP][dS][dC][dV][dL][dY][dS]-OH; disulfide 3-9) was 532 nM; that for `CNCC(=O)N[C@@H](CO)C(=O)N[C@H]1CSSC[C@H](C(=O)N[C@H](C(=O)N[C@@H](CC(C)C)C(=O)N[C@@H](Cc2ccc(O)cc2)C(=O)N[C@@H](CO)C(=O)O)C(C)C)NC(=O)[C@H](CO)NC(=O)[C@@H]2CCCN2C(=O)[C@@H]2CCCN2C(=O)[C@@H]([C@H](C)O)NC(=O)[C@H](CO)NC1=O` [AJ003-8, Sar-SCS-(D-Thr)-PPS-(D-Cys)-VLYS (3,9 disulfide bond)] (H-[Sar]SCS[dT]PPS[dC]VLYS-OH; disulfide 3-9) was 6420 nM. On α7 nAChR, `CC[C@H](NC(=O)[C@@H](NC(=O)[C@H]1CSSC[C@H](NC(=O)[C@H](CO)NC(=O)CN)C(=O)N[C@@H](CO)C(=O)N[C@H]([C@H](C)O)C(=O)N2CCC[C@H]2C(=O)N2CCC[C@H]2C(=O)N[C@@H](CO)C(=O)N1)C(C)C)C(=O)N[C@@H](Cc1ccc(O)cc1)C(=O)N[C@@H](CO)C(=O)O` [AJ003-28, GSCS-(D-Thr)-PPS-(D-Cys)-V-ABu-YS (3,9 disulfide bond)] (H-GSCS[dT]PPS[dC]V[Abu]YS-OH; disulfide 3-9) displayed a Kd of 690 nM. Molecule `CCCC[C@H](NC(=O)[C@@H](NC(=O)[C@H]1CSSC[C@H](NC(=O)[C@H](CO)NC(=O)CN)C(=O)N[C@@H](CO)C(=O)N[C@H]([C@H](C)O)C(=O)N2CCC[C@H]2C(=O)N2CCC[C@H]2C(=O)N[C@@H](CO)C(=O)N1)C(C)C)C(=O)N[C@@H](Cc1ccc(O)cc1)C(=O)N[C@@H](CO)C(=O)O` [AJ003-29, GSCS-(D-Thr)-PPS-(D-Cys)-V-Nle-YS (3,9 disulfide bond)] (H-GSCS[dT]PPS[dC]V[Nle]YS-OH; disulfide 3-9) gave a dissociation constant (Kd) at α7 nAChR of 674 nM. On the same count and under the same terms, the value for `CC(C)C[C@H](NC(=O)[C@@H](NC(=O)[C@H]1CSSC[C@H](NC(=O)[C@H](CO)NC(=O)CN)C(=O)N[C@@H](CO)C(=O)N[C@H]([C@H](C)O)C(=O)N2CCC[C@H]2C(=O)N2CCC[C@H]2C(=O)N[C@@H](CO)C(=O)N1)C(C)C)C(=O)N[C@@H](Cc1ccc(-c2ccccc2)cc1)C(=O)N[C@@H](CO)C(=O)O` [AJ003-32, GSCS-(D-Thr)-PPS-(D-Cys)-VL-Bip-S (3,9 disulfide bond)] (H-GSCS[dT]PPS[dC]VL[Bip]S-OH; disulfide 3-9) was 375 nM. `CC(C)C[C@H](NC(=O)[C@@H](NC(=O)[C@H]1CSSC[C@H](NC(=O)[C@H](CO)NC(=O)CN)C(=O)N[C@@H](CO)C(=O)N[C@H]([C@H](C)O)C(=O)N2CCC[C@H]2C(=O)N2CCC[C@H]2C(=O)N[C@@H](CO)C(=O)N1)C(C)C)C(=O)N[C@@H](Cc1ccc(O)cc1)C(=O)N[C@@H](CCCN)C(N)=O` [AJ003-33, GSCS-(D-Thr)-PPS-(D-Cys)-VLY-Orn-NH2 (3,9 disulfide bond)] (H-GSCS[dT]PPS[dC]VLY[Orn]-NH2; disulfide 3-9): the Kd on α7 nAChR turned out to be 400 nM. In turn, `CCCC[C@H](NC(=O)[C@@H](NC(=O)[C@H]1CSSC[C@H](NC(=O)[C@H](CO)NC(=O)CN)C(=O)N[C@@H](CO)C(=O)N[C@H]([C@H](C)O)C(=O)N2C[C@H](O)C[C@H]2C(=O)N2C[C@H](O)C[C@H]2C(=O)N[C@@H](C)C(=O)N1)C(C)C)C(=O)N[C@@H](Cc1ccc(-c2ccccc2)cc1)C(=O)N[C@@H](CCCN)C(N)=O` [AJ003-35, GSCS-(D-Thr)-Hyp-Hyp-A-(D-Cys)-V-Nle-Bip-Orn-NH2 (3,9 disulfide bond)] (H-GSCS[dT][Hyp][Hyp]A[dC]V[Nle][Bip][Orn]-NH2; disulfide 3-9) gave a Kd at α7 nAChR of 142 nM. Also, in series [1], the half-life at 2 mg/mL was 45.3 h. `CCCC[C@H](NC(=O)[C@@H](NC(=O)[C@H]1CSSC[C@H](NC(=O)[C@H](CO)NC(=O)CN)C(=O)N[C@@H](CO)C(=O)N[C@H]([C@H](C)O)C(=O)N2C[C@H](O)C[C@H]2C(=O)N2C[C@H](O)C[C@H]2C(=O)N[C@@H](CO)C(=O)N1)C(C)C)C(=O)N[C@@H](Cc1ccccc1)C(=O)N[C@@H](CCCN)C(N)=O` [AJ003-37, GSCS-(D-Thr)-Hyp-Hyp-S-(D-Cys)-V-Nle-F-Orn-NH2 (3,9 disulfide bond)] (H-GSCS[dT][Hyp][Hyp]S[dC]V[Nle]F[Orn]-NH2; disulfide 3-9) yielded a Kd on α7 nAChR of 68.7 nM. Besides, the half-life at 2 mg/mL in series [1] is 71 h. The corresponding values for `CCCC[C@H](NC(=O)[C@@H](NC(=O)[C@H]1CSSC[C@H](NC(=O)[C@H](CO)NC(=O)CN)C(=O)N[C@@H](CO)C(=O)N[C@H]([C@H](C)O)C(=O)N2C[C@H](O)C[C@H]2C(=O)N2C[C@H](O)C[C@H]2C(=O)N[C@@H](C)C(=O)N1)C(C)C)C(=O)N[C@@H](Cc1ccccc1)C(=O)N[C@@H](CCCN)C(N)=O` [AJ003-38, GSCS-(D-Thr)-Hyp-Hyp-A-(D-Cys)-V-Nle-F-Orn-NH2 (3,9 disulfide bond)] (H-GSCS[dT][Hyp][Hyp]A[dC]V[Nle]F[Orn]-NH2; disulfide 3-9) are 187 nM and 26.7 h.

For orientation: half-life means the time in which the quantity being followed falls by half. By Kd is commonly meant the constant that tells how readily two partners part at equilibrium. The low end stands for tighter binding, the high end for weaker binding.

The record behind these values is patent EP4725956A1, “MODIFIED POLYPEPTIDE AND USE THEREOF IN FIELD OF ANALGESIA” (Nanjing Anji Biotechnology Co., Ltd., priority 2023, dated 2024).
